Experiments:
M. vaccae = test: Kirby-Bauer antibacterial agar diffusion assay; assay type: cell-based
NDM-1 (Purified) = NDM-1 (Purified) (Klebsiella pneumoniae, UniProt C7C422); test: In vitro β-lactamase inhibition screening, NDM-1; assay type: biochemical; settings: for inhibition of NDM-1 (in words): class B enzymes, effect of N-thiolation
M.tb (H37Rv) = test: Microplate alamar blue assay; assay type: cell-based, Mycobacterium tuberculosis; settings: against M.tb
CTX-M-14 (Purified) = CTX-M-14 (Purified) (Escherichia coli, UniProt Q9L5C7); test: In vitro β-lactamase inhibition screening, CTX-M-14; assay type: biochemical

Chain of NDM-1 (Purified) (C7C422 29-270 limits assumed): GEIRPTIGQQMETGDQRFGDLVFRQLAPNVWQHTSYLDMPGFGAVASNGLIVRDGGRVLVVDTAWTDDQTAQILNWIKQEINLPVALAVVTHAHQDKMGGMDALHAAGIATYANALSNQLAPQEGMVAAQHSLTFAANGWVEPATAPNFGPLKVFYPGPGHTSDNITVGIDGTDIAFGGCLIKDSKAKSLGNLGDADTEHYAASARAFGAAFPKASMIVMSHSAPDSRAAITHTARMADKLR

With `CSN1C(=O)[C@@H](NC(=O)COc2ccccc2)[C@@H]1N(OCc1ccccc1)C(=O)c1ccccc1` (racemic) [Compound 24a] the “activity in the agar studies (in words)” value (M. vaccae) was “not very active”.
In the case of `CSN1C(=O)[C@@H](NC(=O)COc2ccccc2)[C@@H]1N(OCc1ccccc1)C(=O)c1cc([N+](=O)[O-])cc(C(F)(F)F)c1` (racemic) [Compound 24b], the “inhibition of NDM-1 (in words)” value (NDM-1 (Purified)) is reported as “potent inhibitor”.
For `CC(C)(C)[Si](C)(C)N1C(=O)CC1N(OCc1ccccc1)C(=O)c1ccccc1` (centres unmarked) [Compound 6], the “activity in the agar studies (in words)” value (M. vaccae) was “not very active”.
In the case of `CCOc1ccc(C(=O)N(OCc2ccccc2)C2CC(=O)N2)cc1` (centres unmarked) [Compound 7b], the “inhibition of NDM-1 (in words)” value (NDM-1 (Purified)) is reported as “inactive”.
With `C=CCON(C(=O)c1ccc([N+](=O)[O-])cc1)C1CC(=O)N1` (centres unmarked) [Compound 7c] the “inhibition of NDM-1 (in words)” value (NDM-1 (Purified)) was “inactive”.
`CCOc1ccc(C(=O)N(OCc2ccccc2)C2CC(=O)N2SC)cc1` (centres unmarked) [Compound 8b] was tested, and the “inhibition of NDM-1 (in words)” value (NDM-1 (Purified)) was “potent inhibitor”.
In the case of `C=CCON(C(=O)c1ccc([N+](=O)[O-])cc1)C1CC(=O)N1SC` (centres unmarked) [Compound 8c], the “inhibition of NDM-1 (in words)” value (NDM-1 (Purified)) is reported as “potent inhibitor”.
In the case of `C[C@@H](O[Si](C)(C)C(C)(C)C)[C@H]1C(=O)N[C@@H]1N(OCc1ccccc1)C(=O)c1ccccc1` [Compound 11], the “anti-TB activity (in words)” value (M.tb (H37Rv)) is reported as “did not exhibit noticeable anti-TB activity”.
`C[C@@H](O)[C@H]1C(=O)N[C@@H]1N(OCc1ccccc1)C(=O)c1ccccc1` [Compound 12] was tested, and the “anti-TB activity (in words)” value (M.tb (H37Rv)) was “inactive” and the “β-lactamase inhibitory activity (in words)” value (CTX-M-14 (Purified); after silyl removal, compared with CTX-M-14-directed compound 13) was “inactive”.
With `CSN1C(=O)[C@H]([C@@H](C)O[Si](C)(C)C(C)(C)C)[C@H]1N(OCc1ccccc1)C(=O)c1ccccc1` [Compound 13] the “anti-TB activity (in words)” value (M.tb (H37Rv)) was “good activity” and the “activity in the agar studies (in words)” value (M. vaccae) was “not very active”.
For `O=C(Cc1ccccc1)N[C@@H]1C(=O)N[C@H]1N(OCc1ccccc1)C(=O)c1ccccc1` [Compound 18], the Ki (CTX-M-14 (Purified)) was 50 nM and the Ki (NDM-1 (Purified)) was greater than 160000 nM.

— article PMC4762374 (MedChemComm, 2015)
